Here are results for 13 molecules from patent US7244744B2, “Piperidines” (Icagen, Inc., priority 2001, dated 2007).

By IC50 is commonly meant the point on the concentration scale where inhibition reaches its midpoint. A higher IC50 goes with weaker potency.

The target in this test is T1, PN3 (Homo sapiens, UniProt Q9Y5Y9).
T1 construct: expressed in transfected cells
T1 sequence (Q9Y5Y9 whole entry, species assumed): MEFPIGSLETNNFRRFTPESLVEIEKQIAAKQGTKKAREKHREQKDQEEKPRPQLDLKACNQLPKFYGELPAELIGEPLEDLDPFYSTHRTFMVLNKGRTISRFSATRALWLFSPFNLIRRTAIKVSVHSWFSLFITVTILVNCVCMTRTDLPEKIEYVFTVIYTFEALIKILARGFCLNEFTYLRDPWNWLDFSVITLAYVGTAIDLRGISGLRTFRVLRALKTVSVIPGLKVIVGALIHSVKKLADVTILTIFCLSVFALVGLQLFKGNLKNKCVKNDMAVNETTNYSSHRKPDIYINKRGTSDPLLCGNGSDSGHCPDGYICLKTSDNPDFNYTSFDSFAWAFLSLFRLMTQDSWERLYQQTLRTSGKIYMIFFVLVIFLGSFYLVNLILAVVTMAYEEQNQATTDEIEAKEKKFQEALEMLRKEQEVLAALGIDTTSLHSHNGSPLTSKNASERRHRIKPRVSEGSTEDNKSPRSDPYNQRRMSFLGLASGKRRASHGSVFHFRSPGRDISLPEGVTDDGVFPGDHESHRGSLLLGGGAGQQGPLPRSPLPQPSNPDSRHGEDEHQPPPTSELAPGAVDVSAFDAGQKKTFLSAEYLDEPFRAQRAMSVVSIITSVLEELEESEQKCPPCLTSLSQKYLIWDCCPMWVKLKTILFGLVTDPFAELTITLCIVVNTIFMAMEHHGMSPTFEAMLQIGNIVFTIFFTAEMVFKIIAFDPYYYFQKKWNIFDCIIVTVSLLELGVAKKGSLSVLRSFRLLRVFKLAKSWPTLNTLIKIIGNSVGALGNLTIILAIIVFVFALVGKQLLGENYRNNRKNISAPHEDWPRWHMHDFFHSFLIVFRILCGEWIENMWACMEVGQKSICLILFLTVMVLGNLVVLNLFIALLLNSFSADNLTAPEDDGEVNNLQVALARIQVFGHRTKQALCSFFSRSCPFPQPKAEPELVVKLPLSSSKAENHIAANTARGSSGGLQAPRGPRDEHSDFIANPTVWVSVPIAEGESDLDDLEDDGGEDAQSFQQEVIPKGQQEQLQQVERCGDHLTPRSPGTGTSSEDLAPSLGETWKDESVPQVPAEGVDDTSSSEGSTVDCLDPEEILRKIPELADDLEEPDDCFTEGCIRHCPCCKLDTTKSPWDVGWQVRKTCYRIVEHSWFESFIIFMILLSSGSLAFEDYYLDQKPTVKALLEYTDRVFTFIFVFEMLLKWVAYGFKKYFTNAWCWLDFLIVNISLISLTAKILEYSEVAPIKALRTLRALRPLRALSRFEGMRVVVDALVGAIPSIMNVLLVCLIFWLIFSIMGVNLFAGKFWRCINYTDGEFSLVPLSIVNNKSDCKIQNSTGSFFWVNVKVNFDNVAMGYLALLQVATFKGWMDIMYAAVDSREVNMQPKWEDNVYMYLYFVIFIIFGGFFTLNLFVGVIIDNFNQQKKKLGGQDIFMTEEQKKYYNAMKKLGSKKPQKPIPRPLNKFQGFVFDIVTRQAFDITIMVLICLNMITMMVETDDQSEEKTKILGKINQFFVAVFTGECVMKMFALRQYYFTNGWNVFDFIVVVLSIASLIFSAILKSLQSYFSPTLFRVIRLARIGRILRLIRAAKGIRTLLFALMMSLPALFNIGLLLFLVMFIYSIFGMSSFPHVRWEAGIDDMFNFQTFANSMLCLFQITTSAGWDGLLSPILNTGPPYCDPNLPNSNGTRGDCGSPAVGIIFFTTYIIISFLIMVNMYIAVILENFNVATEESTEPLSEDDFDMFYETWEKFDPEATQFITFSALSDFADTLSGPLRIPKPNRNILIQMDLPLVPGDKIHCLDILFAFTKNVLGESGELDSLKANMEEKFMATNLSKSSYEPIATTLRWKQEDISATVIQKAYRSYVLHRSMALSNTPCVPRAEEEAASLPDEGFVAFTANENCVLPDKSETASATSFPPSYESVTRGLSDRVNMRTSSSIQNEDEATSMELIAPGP
Briefly: 14C Guanidinium Ion Influx Binding Assay (flux assay). The format is cell-based. The conditions noted are these: activity towards PN3, PN3 stably expressed in a host cell line, deltamethrine 10 μM. As to the method: 1.1 ^14C Guanidinium Ion Influx Binding Assay
PN3 stably expressed in a host cell line were maintained in DMEM with 5% fetal bovine serum and 300 μg/ml G-418. The cells were subcultured and grown to confluence in 96-well plates 24-48 h before each experiment. After the growth medium was removed, the cells were washed with warm buffer (25 mM Hepes-Tris, 135 mM choline chloride, 5.4 mM potassium chloride, 0.98 mM magnesium sulfate, 5.5 mM glucose, and 1 mg/ml BSA, pH 7.4) and incubated in buffer on a 36° C. slide wanner for approximately 10 minutes. Various concentrations of the test compounds or standard sodium channel blockers (10 μM) and then deltamethrine (10 μM) were added to each well. After the cells were exposed to deltamethrine for 5 minutes, 5 μM of ^14C-guanidinium was added, incubated with the radioligand (30-60 min), washed with ice-cold buffer, and dissolved in 0.1N sodium hydroxide. The radioactivity and the protein concentration of each cell lysate were determined by liquid scintillation counting and the protein assay using Pierce BCA reagent.
For the molecule `CCCCCCNc1nc2ccccc2n1C1CCN(C(=O)c2ccc(CCCC)cc2)CC1` [Compound 188, (4-Butyl-phenyl)-[4-(2-hexylamino-benzoimidazol-1-yl)-piperidin-1-yl]-methanone], the IC50 lay in the range of 0.1 to 4 µM.
As for `CCCCc1ccc(C(=O)N2CCC(n3c(=O)[nH]c4cc(F)ccc43)CC2)cc1` [Compound 160, 1-[1-(4-Butyl-benzoyl)-piperidin-4-yl]-5-fluoro-1,3-dihydro-benzoimidazol-2-one], the IC50 was 0.1 to 4 µM.
In turn, `CCCCc1ccc(C(=O)N2CCC(n3c(NCc4ccccc4)nc4ccccc43)CC2)cc1` [Compound 300, [4-(2-Benzylamino-benzoimidazol-1-yl)-piperidin-1-yl]-(4-butyl-phenyl)-methanone] displayed an IC50 of 0.1 to 4 µM.
Regarding `CCCCc1ccc(C(=O)N2CCC(n3c(=O)n(Cc4ccncc4)c4ccccc43)CC2)cc1` [Compound 198, 1-[1-(4-Butyl-benzoyl)-piperidin-4-yl]-3-pyridin-4-ylmethyl-1,3-dihydro-benzoimidazol-2-one], the 50% inhibitory concentration (IC50) was 0.1 to 4 µM.
With `O=c1[nH]c2ccccc2n1C1CCN(S(=O)(=O)c2ccc3ccccc3c2)CC1` [Compound 304, 1-[1-(Naphthalene-2-sulfonyl)-piperidin-4-yl]-1,3-dihydro-benzoimidazol-2-one], the IC50 is 4.1 to 10 µM.
For the molecule `CCCCc1ccc(C(=O)N2CC=C(n3c(=O)n(Cc4ccccc4)c4ccccc43)CC2)cc1` [Compound 208, 1-Benzyl-3-[1-(4-butyl-benzoyl)-1,2,3,6-tetrahydro-pyridin-4-yl]-1,3-dihydro-benzoimidazol-2-one], the concentration for half-maximal inhibition (IC50) was in the range of 0.1 to 4 µM.
On to `CCCCc1ccc(C(=O)N2CCC(n3c(=O)[nH]c4ccccc43)CC2)cc1` [Compound 34, 1-[1-(4-Butyl-benzoyl)-piperidin-4-yl]-1,3-dihydro-benzoimidazol-2-one], for which the IC50 was 0.1 to 4 µM.
`CCCCc1ccc(C(=O)N2CC=C(n3c(=O)[nH]c4ccccc43)CC2)cc1` [Compound 181, 1-[1-(4-Butyl-benzoyl)-1,2,3,6-tetrahydro-pyridin-4-yl]-1,3-dihydro-benzoimidazol-2-one] gave an IC50 of 0.1 to 4 µM.
In the case of `CCCCc1ccc(C(=O)N2CCC(n3c(C)nc4ccccc43)CC2)cc1` [Compound 203, (4-Butyl-phenyl)-[4-(2-methyl-benzoimidazol-1-yl)-piperidin-1-yl]-methanone] it was 4.1 to 10 µM; in that of `CCCCc1ccc(C(=O)N2CC=C(n3c(=O)n(C)c4ccccc43)CC2)cc1` [Compound 206, 1-[1-(4-Butyl-benzoyl)-1,2,3,6-tetrahydro-pyridin-4-yl]-3-methyl-1,3-dihydro-benzoimidazol-2-one], 0.1 to 4 µM.
On to `CCCCc1ccc(C(=O)N2CCC(n3c(=O)[nH]c4cccnc43)CC2)cc1` [Compound 200, 3-[1-(4-Butyl-benzoyl)-piperidin-4-yl]-1,3-dihydro-imidazo[4,5-b]pyridin-2-one], for which the IC50 was in the range of 0.1 to 4 µM.
For `CCCCc1ccc(C(=O)N2CCC(n3c(=O)n(C)c4ccccc43)CC2)cc1` [Compound 150, 1-[1-(4-Butyl-benzoyl)-piperidin-4-yl]-3-methyl-1,3-dihydro-benzoimidazol-2-one] the value was 0.1 to 4 µM; for `CCCCc1ccc(C(=O)N2CCC(n3c(NCc4ccccn4)nc4ccccc43)CC2)cc1` [Compound 185, (4-Butyl-phenyl)-(4-{2-[(pyridin-2-ylmethyl)-amino]-benzoimidazol-1-yl}-piperidin-1-yl)-methanone], 4.1 to 10 µM.
